Reference: paper PMC9884808, “Pharmacokinetics, tissue distribution, and antitumor activity of a novel compound, NY-2, in non-small cell lung cancer” (Frontiers in Pharmacology, 2023)

What was measured:
HCT116 = test: MTT cell viability assay; assay type: cell-based, human; details: Homo sapiens, HCT-116, HCT116 colorectal cancer cells
Procedure: (§1) The human colorectal cancer cell lines, HCT116 and LoVo, the breast cancer cell line, T47D, the hepatocellular carcinoma cell line, HepG2, the normal human liver cell line, HL7702, human umbilical vein endothelial cells (HUVECs), and the non-small cell lung cancer cell lines, A549, H1993, HCC827, H460, were purchased from the American Type Culture Collection (Manassas, VA, United States). Cell lines were cultured in the recommended RPMI-1640 medium (AE24464298, Hyclone, United States) and DMEM medium (AE29422278, Hyclone, United States) supplemented with 10% fetal bovine serum (FBS; JC63470, FB15015, Clark, United States) with 1% penicillin-streptomycin. Cells were maintained in an incubator at 37°C with 5% CO2 (HF90,Sanyo, Japan) and passaged every 48–72 h, after detaching with 0.25% trypsin (Sigma, United States). The compounds ZLDI-8 and NY-1 to -15 were synthesized in the laboratory of Dr. Huaiwei Ding in Shenyang Pharmaceutical University, and verified by high-performance liquid chromatography (purity >95%) for use in experiments (Supplementary Figure S1). Paclitaxel was purchased from MedChemExpress (HY-B0015, 99.97% purity, United States).
(§2) Cell viability was measured by the MTT assay. HCT116, HL7702, A549, H1993, HCC827, and H460 cells were dispensed into 96-well plates at a density of 1 × 10^5 cells/mL. After 24–48 h incubation, cells were treated with the compounds at different concentrations for the indicated periods. An assay kit (WLA073, Wanlei Co., Liaoning, China), was used according to the manufacturer’s instructions to measure LDH activity, The absorbance at 450 nm was measured with a microplate reader (Elx-800, Bio-Rad, China).
(§3) The preliminary antitumor activity of the series of ZLDI-8 derivatives, NY-1 to -15 was screened by the MTT cell viability assay. […] The antitumor activity of NY-2 on HCT116 cells was concentration- and time-dependent, and slightly better than that of the original compound, ZLDI-8.

LoVo = test: MTT cell viability assay; assay type: cell-based, human; details: Homo sapiens, LoVo colorectal cancer cells
Procedure: as §1, §2, §3

HepG2 = test: MTT cell viability assay; assay type: cell-based, human; details: Homo sapiens, HepG2 hepatocellular carcinoma cells
Procedure: as §1, §2, §3

A549 = test: MTT cytotoxicity assay, NSCLC cells; assay type: cell-based; details: Homo sapiens, 48 h
Procedure: as §1, §2
(§4) First, the effects of NY-2 and ZLDI-8 on the survival rates of four NSCLC cell lines, A549, H1993, HCC827, H460, were compared by the MTT cytotoxicity assay. The various types of NSCLC cells were incubated with increasing concentrations of NY-2 and ZLDI-8 (1.25, 2.5, 5, 10, and 20 μM), and the cell viability at 48 h was measured. […] Considering that the culture time might be too long, NY-2 was selected for 48 h treatment at increasing concentrations of 2.5, 5.0, and 10 μM as the experimental conditions for subsequent in vitro experiments.

H460 = test: MTT cytotoxicity assay, NSCLC cells; assay type: cell-based; details: Homo sapiens, NCI-H460, 48 h
Procedure: as §1, §2, §4

[1] = Hepatotoxicity and nephrotoxicity experiments in KM mice; assay type: in vivo; details: for pathological changes of liver and kidney tissues (H&E): vs control; for effect on overall antioxidant capacity: T-AOC kit, ABTS method
Procedure: Animal experiments were approved by the Ethics Committee on Laboratory Animal Management of Shenyang Pharmaceutical University (Approval Document No. SYPU-SQ-001). All animals received humane care according to the local guidelines for the Care and Use of Laboratory Animals of the Shenyang Pharmaceutical University. All animals were housed under specific pathogen-free (SPF) conditions at 25°C with 50% humidity, with free access to food and water for 7 days to adapt. KM mice (male, 4–5 weeks old and weighing 18–22 g) were purchased from Liaoning Changsheng Biotechnology Co., Ltd. (Liaoning, China, animal license #SCXK-2020–0001). For the hepatotoxicity and nephrotoxicity assays, NY-2 was injected via tail vein into KM mice, and the results were used in deciding on the test dose for antitumor activity in a nude mouse cancer model. Its influence on the immune system was also determined. The treatment groups were ZLDI-8, NY-2, DMSO control, and normal saline control, with six mice in each group. The mice were fasted for 12 h before the experiment, but were allowed to drink water freely. ZLDI-8 and NY-2 were dissolved in 1% DMSO containing 1% Tween and 6 mg/kg was administered by a daily tail vein injection for seven consecutive days ([Lu et al., 2020]).
After injection of the compounds, blood was drawn and serum was collected for the determination of ALT and AST levels (Nanjing Jiancheng Bioengineering Institute, China, C009-2-1 and C010-2-1) to assess liver function. Serum creatinine (sCr, Nanjing Jiancheng Bioengineering Institute, China, C011-2-1) and blood urea nitrogen (BUN, Nanjing Jiancheng Bioengineering Institute, China, C013-2-1) were measured to assess renal function. Tumor necrosis factor-α (TNF-α, Cusabio, Wuhan, China, CSB-E04741m) and interleukin-6 (IL-6, Cusabio, Wuhan, China, CSB-E04639m) were used as markers to evaluate the immune inflammatory response, and an assay kit (T-AOC, S0119, Beyotime) was used to measure total antioxidant capacity by the ABTS method. Mice were euthanized by cervical dislocation, liver and kidney tissue was removed and fixed in formalin, dehydrated in ethanol, embedded in paraffin, and sectioned for staining with hematoxylin and eosin (H&E).
KM mice were treated with ZLDI-8 or NY-2 by tail vein injection (6 mg/kg) for 7 days, then the mice were euthanized and liver and kidney tissues were removed and sectioned. For the experiment with BALB/c nude mice, the tail vein injections of NY-2 (6 mg/kg) were continued for 28 days, and the lungs, tumor, heart, liver, and kidney were removed. Trimmed tissue samples were fixed in 4% paraformaldehyde for 24 h, dehydrated in graded ethanol solutions, embedded in paraffin and sectioned. Sections for staining were dewaxed with xylene and then rehydrated, and hematoxylin-eosin staining was performed, after which the sections were again dehydrated in ethanol and cleared with xylene before being mounted on a slide, cover-slipped and examined microscopically. The remainder of the tumors and tissues was frozen in liquid nitrogen for other studies.

[2] = Tissue distribution in rats; assay type: in vivo, SD rats; details: for blood-brain barrier penetration: rat brain tissue concentration very low; for order of concentrations in tissues: 5 min after administration
Procedure: After fasting for 12 h, 32 SD rats were randomly divided into eight groups of four rats each. Four groups were injected with ZLDI-8 via tail vein (6 mg/kg) at 5 min, 12, 24, and 48 h. The other four groups were injected with NY-2 (6 mg/kg) at the same time points. The heart, liver, spleen, lung, kidney, brain, muscle, and intestines were collected after cervical dislocation at the specified time points and tissue samples were removed. Samples were rinsed with normal saline at 0°C to remove residual blood and debris, blotted dry with filter paper, weighed, and stored at ˗20°C until used.

[3] = 6 mg/kg daily tail vein injection, 7 days

| SMILES | IC50 (HCT116) [µM] | IC50 (LoVo) [µM] | IC50 (HepG2) [µM] | IC50 (A549) [µM] | IC50 (H460) [µM] | effect on IL-6 and TNF-α levels compared with the control group [1, 3] | levels of AST, ALT, sCr, and BUN compared with the control group ([1]; 6 mg/kg daily tail vein injection, 7 days, serum) | pathological changes of liver and kidney tissues (H&E) [1, 3] | effect on overall antioxidant capacity [1] | blood-brain barrier penetration [2] | concentration in the brain ([2]; rat, tail vein 6 mg/kg) | tissue with the highest concentration ([2]; rat, tail vein 6 mg/kg) | order of concentrations in tissues ([2]; rat, tail vein 6 mg/kg) | BUN compared with the control group ([1]; 6 mg/kg daily tail vein injection, 7 days, serum, only significant difference) |
| --- | --- | --- | --- | --- | --- | --- | --- | --- | --- | --- | --- | --- | --- | --- |
| Cc1c(C=C2C(=O)NC(=S)NC2=O)c2ccccc2n1CCOc1ccc(F)cc1 [NY-2] | 5.35 | 5.82 | 20 | 8.95 ± 0.58 | 13.5 ± 0.58 | no significant effect | no significant differences | no obvious pathological changes | neither ZLDI-8 nor NY-2 had any overt effect | do not readily penetrate the blood-brain barrier | almost zero | highest in the lung | lung > liver > spleen > heart > kidney > intestines > brain > muscle |  |
| Cc1ccc(OCCn2c(C)c(C=C3C(=O)NC(=S)NC3=O)c3ccccc32)c(C)c1 [ZLDI-8, reference compound] | 7.72 | 9.65 | 22.9 | 23.1 ± 2.27 | 25.2 ± 2 | no significant effect |  | no obvious pathological changes | neither ZLDI-8 nor NY-2 had any overt effect | do not readily penetrate the blood-brain barrier | almost zero |  | lung > liver > spleen > heart > kidney > intestines > brain > muscle | possible decrease |
